Columns and labels:
[1] = Effect of pH on stability of tigecycline 0.50 mg/ml in Normal Saline, in a flask at 25° C.; format: physicochemical
Procedure: The effect of pH on the stability of tigecycline formulations having a concentration of 0.50 mg tigecycline/ml in a Normal Saline solution was studied by analyzing the variation of tigecycline content, total impurity content, and the concentration of tigecycline epimer at different pH values, either in the presence of air or under an atmosphere having an oxygen content of less than 1 ppm, in a flask at 25° C.

[2] = simple oral immediate release prototypes, animals; cited from earlier work
[3] = pH 4.5, 72 h, in the presence of air
[4] = pH 5.0, 0 h, in the presence of air
[5] = pH 5.0, 24 h, in the presence of air
[6] = pH 5.0, 72 h, in the presence of air
[7] = pH 5.5, 0 h, in the presence of air
[8] = pH 5.5, 24 h, in the presence of air
[9] = pH 5.5, 72 h, in the presence of air
[10] = pH 6.5, 0 h, in the presence of air
[11] = pH 6.5, 8 h, in the presence of air
[12] = pH 6.5, 24 h, in the presence of air
[13] = pH 6.5, 72 h, in the presence of air
[14] = pH 8.0, 0 h, in the presence of air
[15] = pH 8.0, 8 h, in the presence of air
[16] = pH 8.0, 24 h, in the presence of air
[17] = pH 8.0, 72 h, in the presence of air

CN(C)c1cc(NC(=O)CNC(C)(C)C)c(O)c2c1C[C@H]1C[C@H]3[C@H](N(C)C)C(O)=C(C(N)=O)C(=O)[C@@]3(O)C(O)=C1C2=O [tigecycline, Tigecycline]
Total impurity content as a % of initial weight of tigecycline ([1]; pH 4.5, 24 h, oxygen <1 ppm): 0.682% | Total tigecycline epimer content as a % of initial weight of tigecycline ([1]; pH 4.5, 24 h, oxygen <1 ppm): 0.547% | Percentage of tigecycline remaining [1, 3]: 97% | Total impurity content as a % of initial weight of tigecycline [1, 3]: 2.625% | Total tigecycline epimer content as a % of initial weight of tigecycline [1, 3]: 1.95% | Percentage of tigecycline remaining ([1]; pH 4.5, 72 h, oxygen <1 ppm): 98.50% | Total impurity content as a % of initial weight of tigecycline ([1]; pH 4.5, 72 h, oxygen <1 ppm): 2.365% | Total tigecycline epimer content as a % of initial weight of tigecycline ([1]; pH 4.5, 72 h, oxygen <1 ppm): 1.934% | Percentage of tigecycline remaining [1, 4]: 100% | Total impurity content as a % of initial weight of tigecycline [1, 4]: 0.29% | Total tigecycline epimer content as a % of initial weight of tigecycline [1, 4]: 0.167% | Percentage of tigecycline remaining [1, 5]: 101% | Total impurity content as a % of initial weight of tigecycline [1, 5]: 0.691% | Total tigecycline epimer content as a % of initial weight of tigecycline [1, 5]: 0.49% | Percentage of tigecycline remaining [1, 6]: 99% | Total impurity content as a % of initial weight of tigecycline [1, 6]: 2.632% | Total tigecycline epimer content as a % of initial weight of tigecycline [1, 6]: 1.69% | Percentage of tigecycline remaining [1, 7]: 100% | Total impurity content as a % of initial weight of tigecycline [1, 7]: 0.31% | Total tigecycline epimer content as a % of initial weight of tigecycline [1, 7]: 0.162% | Percentage of tigecycline remaining [1, 8]: 99% | Total impurity content as a % of initial weight of tigecycline [1, 8]: 0.865% | Total tigecycline epimer content as a % of initial weight of tigecycline [1, 8]: 0.52% | Percentage of tigecycline remaining [1, 9]: 97% | Total impurity content as a % of initial weight of tigecycline [1, 9]: 3.221% | Total tigecycline epimer content as a % of initial weight of tigecycline [1, 9]: 1.31% | Percentage of tigecycline remaining [1, 10]: 100% | Total impurity content as a % of initial weight of tigecycline [1, 10]: 0.31% | Total tigecycline epimer content as a % of initial weight of tigecycline [1, 10]: 0.15% | Percentage of tigecycline remaining ([1]; pH 6.5, 0 h, oxygen <1 ppm): 100.0% | Total impurity content as a % of initial weight of tigecycline ([1]; pH 6.5, 0 h, oxygen <1 ppm): 0.224% | Total tigecycline epimer content as a % of initial weight of tigecycline ([1]; pH 6.5, 0 h, oxygen <1 ppm): 0.111% | Percentage of tigecycline remaining [1, 11]: 100% | Total impurity content as a % of initial weight of tigecycline [1, 11]: 0.602% | Total tigecycline epimer content as a % of initial weight of tigecycline [1, 11]: 0.26% | Percentage of tigecycline remaining ([1]; pH 6.5, 8 h, oxygen <1 ppm): 100.56% | Total impurity content as a % of initial weight of tigecycline ([1]; pH 6.5, 8 h, oxygen <1 ppm): 0.399% | Total tigecycline epimer content as a % of initial weight of tigecycline ([1]; pH 6.5, 8 h, oxygen <1 ppm): 0.188% | Percentage of tigecycline remaining [1, 12]: 100% | Total impurity content as a % of initial weight of tigecycline [1, 12]: 1.429% | Total tigecycline epimer content as a % of initial weight of tigecycline [1, 12]: 0.43% | Percentage of tigecycline remaining ([1]; pH 6.5, 24 h, oxygen <1 ppm): 99.59% | Total impurity content as a % of initial weight of tigecycline ([1]; pH 6.5, 24 h, oxygen <1 ppm): 0.812% | Total tigecycline epimer content as a % of initial weight of tigecycline ([1]; pH 6.5, 24 h, oxygen <1 ppm): 0.45% | Percentage of tigecycline remaining [1, 13]: 86% | Total impurity content as a % of initial weight of tigecycline [1, 13]: 11.78% | Total tigecycline epimer content as a % of initial weight of tigecycline [1, 13]: 1.08% | Percentage of tigecycline remaining ([1]; pH 6.5, 72 h, oxygen <1 ppm): 98.03% | Total impurity content as a % of initial weight of tigecycline ([1]; pH 6.5, 72 h, oxygen <1 ppm): 2.654% | Total tigecycline epimer content as a % of initial weight of tigecycline ([1]; pH 6.5, 72 h, oxygen <1 ppm): 1.532% | Percentage of tigecycline remaining [1, 14]: 100% | Total impurity content as a % of initial weight of tigecycline [1, 14]: 0.30% | Total tigecycline epimer content as a % of initial weight of tigecycline [1, 14]: 0.14% | Percentage of tigecycline remaining ([1]; pH 8.0, 0 h, oxygen <1 ppm): 100.0% | Total impurity content as a % of initial weight of tigecycline ([1]; pH 8.0, 0 h, oxygen <1 ppm): 0.22% | Total tigecycline epimer content as a % of initial weight of tigecycline ([1]; pH 8.0, 0 h, oxygen <1 ppm): 0.107% | Percentage of tigecycline remaining [1, 15]: 100% | Total impurity content as a % of initial weight of tigecycline [1, 15]: 0.924% | Total tigecycline epimer content as a % of initial weight of tigecycline [1, 15]: 0.27% | Percentage of tigecycline remaining ([1]; pH 8.0, 8 h, oxygen <1 ppm): 100.81% | Total impurity content as a % of initial weight of tigecycline ([1]; pH 8.0, 8 h, oxygen <1 ppm): 0.443% | Total tigecycline epimer content as a % of initial weight of tigecycline ([1]; pH 8.0, 8 h, oxygen <1 ppm): 0.192% | Percentage of tigecycline remaining [1, 16]: 95% | Total impurity content as a % of initial weight of tigecycline [1, 16]: 3.737% | Total tigecycline epimer content as a % of initial weight of tigecycline [1, 16]: 0.43% | Percentage of tigecycline remaining ([1]; pH 8.0, 24 h, oxygen <1 ppm): 99.64% | Total impurity content as a % of initial weight of tigecycline ([1]; pH 8.0, 24 h, oxygen <1 ppm): 1.214% | Total tigecycline epimer content as a % of initial weight of tigecycline ([1]; pH 8.0, 24 h, oxygen <1 ppm): 0.425% | Percentage of tigecycline remaining [1, 17]: 57% | Total impurity content as a % of initial weight of tigecycline [1, 17]: 29.654% | Total tigecycline epimer content as a % of initial weight of tigecycline [1, 17]: 1.23% | Percentage of tigecycline remaining ([1]; pH 8.0, 72 h, oxygen <1 ppm): 95.98% | Total impurity content as a % of initial weight of tigecycline ([1]; pH 8.0, 72 h, oxygen <1 ppm): 3.461% | Total tigecycline epimer content as a % of initial weight of tigecycline ([1]; pH 8.0, 72 h, oxygen <1 ppm): 1.516% | bioavailability [2]: poor bioavailability

From US20120277197A1, “TIGECYCLINE FORMULATIONS” (WYETH, priority 2008, published 2012)
